Assay results as given in the OligoGym collection.
“And” between values parts separate entries of the source, which are not always exact repeats. Equal values may be shown once. After the bases stand the sugars from the 5' end (letter, count) and the backbone: PS all phosphorothioate, else s phosphorothioate and o phosphodiester by linkage. Methylation of C is not given here. e = 2'-O-(2-methoxyethyl) (MOE); k = constrained ethyl (cEt); d = 2'-deoxy (DNA)

How the values were obtained:
[1] = biological target: DGAT2; details: ASO
[2] = biological target: SOD1; details: ASO

“CTCACATGCCTGAGGGCAGC (sugars e5 d10 e5, PS)” showed a target mRNA inhibition ([1]; HepG2, 2.5 µM) of 65% and a target mRNA inhibition ([1]; HepG2, 10 µM) of 87%.

For “GCAGATGGACAGGTGATTCT (sugars e5 d10 e5, PS)”, the target mRNA inhibition ([1]; HepG2, 2.5 µM) was 69% and the target mRNA inhibition ([1]; HepG2, 10 µM) was 91%.

In the case of “AGGAAGGAAATGCTAGGCCT (sugars e5 d10 e5, PS)”, the target mRNA inhibition ([1]; HepG2, 0.12 µM) is reported as 64%.

Work on “AGCTCAGAGACTCAGCCGCA (sugars e2 d13 e5, PS)” yielded a target mRNA inhibition ([1]; HepG2, 0.12 µM) of 86%.

“ATGACCTTGGGTCAGAGGAA (sugars e5 d10 e5, PS)” showed a target mRNA inhibition ([1]; HepG2, 2.5 µM) of 61% and a target mRNA inhibition ([1]; HepG2, 10 µM) of 46%.

For “GAGCTCTCAAGTCTTCC (sugars e3 d10 e4, PS)”, the target mRNA inhibition ([1]; HepG2, 2.5 µM) was 55% and 64% and the target mRNA inhibition ([1]; HepG2, 10 µM) was 86% and 87%.

In the case of “GACCTATTGAGCCAGGTGAC (sugars e5 d10 e5, PS)”, the target mRNA inhibition ([1]; HepG2, 0.12 µM) is reported as 36%.

“ACAAAGCCCTTGCGGTTCCG (sugars e5 d10 e5, PS)” was tested, and the target mRNA inhibition ([1]; HepG2, 0.12 µM) was 35%.

Work on “GAACTTCTTCTGGACCCATC (sugars e5 d10 e5, PS)” yielded a target mRNA inhibition ([1]; HepG2, 0.12 µM) of 19%.

“AGCAGGATAACAGATGA (sugars e3 k2 d7 k2 e3, PS)” gave a target mRNA inhibition ([2]; HepG2, 3 µM) of 45%.

With “GACAAGTTTAATACCCA (sugars e2 k2 d8 k2 e3, PS)” the target mRNA inhibition ([2]; HepG2, 5 µM) was 54%.

With “CAAGGGAATGTTTATTG (sugars e2 k2 d8 k2 e3, PS)” the target mRNA inhibition ([2]; HepG2, 4 µM) was 43%.

With “TACTTTCCTTCTGCTCG (sugars e3 k2 d7 k2 e3, PS)” the target mRNA inhibition ([2]; HepG2, 3 µM) was 14%.

“CATCTGCTTTTTCATGGACC (sugars e5 d10 e5, PS)” was tested, and the target mRNA inhibition ([2]; HepG2, 3 µM) was 46%.

In the case of “TCCAAGGGAATGTTTAT (sugars e2 k2 d9 k2 e2, PS)”, the target mRNA inhibition ([2]; HepG2, 4 µM) is reported as 57%.

With “AGGATTAAAGTGAGGAC (sugars e3 k2 d7 k2 e3, PS)” the target mRNA inhibition ([2]; HepG2, 3 µM) was 23%.

With “AAATACAGGTCATTGAA (sugars e3 k2 d7 k2 e3, PS)” the target mRNA inhibition ([2]; HepG2, 3 µM) was 2%.

In the case of “TGCCATACAGGGTTTTT (sugars e3 k2 d7 k2 e3, PS)”, the target mRNA inhibition ([2]; HepG2, 3 µM) is reported as 9%.

Sequence “GCAGGAGACTACGACGCAAA (sugars e5 d10 e5, PS)” has a target mRNA inhibition ([2]; HepG2, 4 µM) of 33%.

For “CTCGAAATTGATGATGCCCT (sugars e5 d10 e5, PS)”, the target mRNA inhibition ([2]; HepG2, 4 µM) was 31%.

“TTCCAAGTGATCATAAATCA (sugars e5 d10 e5, PS)” showed a target mRNA inhibition ([2]; HepG2, 5 µM) of 18%.

With “CCATACAGGGTTTTTAT (sugars e2 k2 d9 k2 e2, PS)” the target mRNA inhibition ([2]; HepG2, 5 µM) was 34%.

With “CTAGCAGGATAACAGAT (sugars e3 k2 d7 k2 e3, PS)” the target mRNA inhibition ([2]; HepG2, 3 µM) was 39%.

With “ACAGCTAGCAGGATAAC (sugars e2 k2 d8 k2 e3, PS)” the target mRNA inhibition ([2]; HepG2, 0.1875 µM) was 11%, the target mRNA inhibition ([2]; HepG2, 0.75 µM) was 64% and the target mRNA inhibition ([2]; HepG2, 3 µM) was 87%. It also gave a target mRNA inhibition ([2]; HepG2, 4 µM) of 79% and a target mRNA inhibition ([2]; HepG2, 12 µM) of 95%.

Work on “CTGGCAAAATACAGGTC (sugars e3 k2 d7 k2 e3, PS)” yielded a target mRNA inhibition ([2]; HepG2, 3 µM) of 18%.

With “CACTACAGGTACTTTAAAGC (sugars e5 d10 e5, PS)” the target mRNA inhibition ([2]; HepG2, 5 µM) was 18%.

“GATAACAGATGAGTTAA (sugars e2 k2 d9 k2 e2, PS)” showed a target mRNA inhibition ([2]; HepG2, 4 µM) of 28%.

In the case of “TCCTTTGGCCCACCGTG (sugars e3 k2 d7 k2 e3, PS)”, the target mRNA inhibition ([2]; HepG2, 3 µM) is reported as 39%.

“CCCAATTACACCACAAG (sugars e2 k2 d9 k2 e2, PS)” was tested, and the target mRNA inhibition ([2]; HepG2, 0.1875 µM) was 25%, the target mRNA inhibition ([2]; HepG2, 0.75 µM) was 52% and the target mRNA inhibition ([2]; HepG2, 3 µM) was 82%. The target mRNA inhibition ([2]; HepG2, 4 µM) was 74% and the target mRNA inhibition ([2]; HepG2, 12 µM) was 97%.

Work on “CAAAATACAGGTCATTG (sugars e3 k2 d7 k2 e3, PS)” yielded a target mRNA inhibition ([2]; HepG2, 3 µM) of 23%.

Sequence “TATTCACAGGCTTGAAT (sugars e2 k2 d8 k2 e3, PS)” has a target mRNA inhibition ([2]; HepG2, 5 µM) of 24%.

“GATTAAAGTGAGGACCT (sugars e3 k2 d7 k2 e3, PS)” showed a target mRNA inhibition ([2]; HepG2, 3 µM) of 8%.

For “GACAAAGAAATTCTGACAAG (sugars e5 d10 e5, PS)”, the target mRNA inhibition ([2]; HepG2, 5 µM) was 8%.

“AGTGTTTAATGTTTATCAGG (sugars e5 d10 e5, linkages s1 o3 s11 o3 s1)” gave a target mRNA inhibition ([2]; A431, 0.12 µM) of 16%, a target mRNA inhibition ([2]; A431, 0.6 µM) of 49% and a target mRNA inhibition ([2]; A431, 3 µM) of 60%. The target mRNA inhibition ([2]; A431, 15 µM) was 75%, the target mRNA inhibition ([2]; HepG2, 0.222 µM) was 28% and the target mRNA inhibition ([2]; HepG2, 0.667 µM) was 55%. It also gave a target mRNA inhibition ([2]; HepG2, 2 µM) of 89% and a target mRNA inhibition ([2]; HepG2, 6 µM) of 80%.

For “ATTGAAACAGACATTTT (sugars e3 k2 d7 k2 e3, PS)”, the target mRNA inhibition ([2]; HepG2, 3 µM) was 22%.

“TGGGCGATCCCAATTAC (sugars e3 k2 d7 k2 e3, PS)” was tested, and the target mRNA inhibition ([2]; HepG2, 3 µM) was 20%.

With “TTAGTTTGAATTTGGATTCT (sugars e5 d10 e5, PS)” the target mRNA inhibition ([2]; HepG2, 5 µM) was 0%.

Sequence “TTGGATTCTTTTAATAG (sugars e2 k2 d8 k2 e3, PS)” has a target mRNA inhibition ([2]; HepG2, 5 µM) of 23%.

“ACGCTGCAGGAGACTAC (sugars e3 k2 d7 k2 e3, PS)” was tested, and the target mRNA inhibition ([2]; HepG2, 3 µM) was 25%.

In the case of “ACAGGTACTTTAAAGCA (sugars e2 k2 d9 k2 e2, PS)”, the target mRNA inhibition ([2]; HepG2, 5 µM) is reported as 20%.

Sequence “CTGGCAAAATACAGGTC (sugars e2 k2 d9 k2 e2, PS)” has a target mRNA inhibition ([2]; HepG2, 5 µM) of 53%.

“TTTATTGGGCGATCCCA (sugars e3 k2 d7 k2 e3, PS)” was tested, and the target mRNA inhibition ([2]; HepG2, 3 µM) was 20%.

“GATAACAGATGAGTTAA (sugars e3 k2 d7 k2 e3, PS)” was tested, and the target mRNA inhibition ([2]; HepG2, 3 µM) was 11%.

With “CCCTTCAGCACGCACAC (sugars e2 k2 d9 k2 e2, PS)” the target mRNA inhibition ([2]; HepG2, 0.1875 µM) was 14%, the target mRNA inhibition ([2]; HepG2, 0.75 µM) was 47% and the target mRNA inhibition ([2]; HepG2, 3 µM) was 82%. The target mRNA inhibition ([2]; HepG2, 4 µM) was 81% and the target mRNA inhibition ([2]; HepG2, 12 µM) was 97%.

“CAGTTTCTCACTACAGG (sugars e2 k2 d8 k2 e3, PS)” gave a target mRNA inhibition ([2]; HepG2, 5 µM) of 38%.
